From patent publication US20240287138A1, “CYCLIC PEPTIDES FOR INHIBITING TNF RECEPTOR 1 ACTIVITY” (Merck Sharp & Dohme LLC, priority 2023, published 2024)
Numbered stars: 1 amine (or outer) side, 2 acyl side, 3 side chain; on linkers, the order of the positions; unused ones are H or OH. Bridge positions count the residues as written; N and C are the ends. Square brackets hold non-standard residues; d marks the D form. Peptide text beside a SMILES is read from it. * marks the point of attachment. Ala(2-carboxypyrimidin-5-yl) = N[C@@H](Cc1cnc(C(=O)O)nc1)C(=O)O; Trp(βS-Me,7-OMe) = COc1cccc2c([C@H](C)[C@H](N)C(=O)O)c[nH]c12; X49 = C[N+](C)(C)CC(=O)N[C@H]1C[C@H](C(=O)[*:2])N([*:1])C1; Ala(1-bicyclo(1.1.1)pentyl) = N[C@@H](CC12CC(C1)C2)C(=O)O; X54 = O=C(O)c1c(F)cc(C[C@H](N[*:1])C(=O)[*:2])cc1F; Trp(7-CN) = N#Cc1cccc2c(C[C@H](N)C(=O)O)c[nH]c12; Trp(7-Cl) = N[C@@H](Cc1c[nH]c2c(Cl)cccc12)C(=O)O; Phe(4-CONH2) = NC(=O)c1ccc(C[C@H](N)C(=O)O)cc1; Phe(4-COOH) = N[C@@H](Cc1ccc(C(=O)O)cc1)C(=O)O; Trp(7-aza) = N[C@@H](Cc1c[nH]c2ncccc12)C(=O)O; Pip(5R-OH) = O=C(O)[C@@H]1CC[C@@H](O)CN1; X1 = O=C([C@@H]1CC[C@H](N[*:1])C1)[*:2]; X40 = CCN([C@H](C)C(=O)[*:2])[*:1]; Pip(4-aza) = O=C(O)[C@@H]1CNCCN1; 4Pal = N[C@@H](Cc1ccncc1)C(=O)O; NMeE = CN[C@@H](CCC(=O)O)C(=O)O; dHyp = O=C(O)[C@H]1C[C@H](O)CN1; αMeS = C[C@](N)(CO)C(=O)O; Nle = CCCC[C@H](N)C(=O)O; Me2NCH2CH2 = CN(C)CC*; Sar = CNCC(=O)O

Legend:
[1] = target: T1, human soluble TNFR1 (sTNFR1) (Homo sapiens, UniProt P19438); test: Human sTNFR1-peptide displacement assay (LanthaScreen Eu TR-FRET binding assay)
T1 construct: made in house; host or cells: Sf21 (baculovirus)
T1 sequence (P19438 with tags, fused parts or gaps): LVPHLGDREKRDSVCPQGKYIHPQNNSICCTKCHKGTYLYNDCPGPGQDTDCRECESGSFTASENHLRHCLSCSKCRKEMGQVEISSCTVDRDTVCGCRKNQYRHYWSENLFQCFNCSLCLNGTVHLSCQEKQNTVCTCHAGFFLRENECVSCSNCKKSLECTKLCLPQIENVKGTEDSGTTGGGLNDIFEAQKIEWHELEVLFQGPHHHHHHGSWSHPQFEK
In short: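 Readout is the 665/615 nm TR-FRET ratio (Eu anti-His donor, streptavidin-Alexa647 acceptor), normalized to DMSO and saturating displacer, fit by Morrison-based five-parameter logistic for Kd^app. His-tagged sTNFR1 (1-211) prebound to 100 nM biotinylated peptide SEQ ID NO.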

[2] = target: T2, TNFα-induced NF-κB signal transduction pathway (TNFR1 signaling) in THP-1 cells (Homo sapiens, UniProt P19438); test: THP-1 Lucia NF-κB reporter cell assay, inhibition of TNFα-induced NF-κB signaling; format: cell-based; conditions: THP-1 NF-κB Lucia reporter cells, 10 ng/mL TNFα, 16-18 h, secreted luciferase; read-out: THP-1 IC50
T2 sequence (P19438 30-455): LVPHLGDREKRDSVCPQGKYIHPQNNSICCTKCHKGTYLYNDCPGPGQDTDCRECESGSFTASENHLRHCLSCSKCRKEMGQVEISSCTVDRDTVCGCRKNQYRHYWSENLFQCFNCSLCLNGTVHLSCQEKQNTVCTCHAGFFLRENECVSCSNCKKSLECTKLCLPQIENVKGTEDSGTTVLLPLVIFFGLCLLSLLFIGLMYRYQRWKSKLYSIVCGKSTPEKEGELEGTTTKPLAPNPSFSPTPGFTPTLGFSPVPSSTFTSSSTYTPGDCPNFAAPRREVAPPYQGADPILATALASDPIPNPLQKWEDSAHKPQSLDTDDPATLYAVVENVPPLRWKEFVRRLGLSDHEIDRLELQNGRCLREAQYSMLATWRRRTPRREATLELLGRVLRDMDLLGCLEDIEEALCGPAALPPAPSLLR
In short: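 Macrocyclic peptides were preincubated 1 h at 37 °C with THP-1 NF-κB-Lucia reporter cells (20,000 cells/well) in antibiotic-free RPMI 1640/10% FBS, then stimulated with 10 ng/mL human TNFα overnight (16-18 h). Secreted luciferase in supernatant was read by luminescence; IC50 from 4-parameter logistic fits.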

SMILES | IC50 [1] [nM] | Kd [1] [nM] | IC50 [2] [nM]
CCCC[C@@H]1NC(=O)CSC[C@@H](C(N)=O)NC(=O)[C@H]([C@@H](C)c2c[nH]c3c(OC)cccc23)NC(=O)CN(C)C(=O)[C@H](Cc2ccc(O)cc2)NC(=O)[C@H](Cc2ccc(C(N)=O)cc2)NC(=O)[C@](C)(CO)NC(=O)[C@H](Cc2c[nH]c3c(Cl)cccc23)NC(=O)[C@H](Cc2ccc(C(=O)O)cc2)NC(=O)[C@H](CC(N)=O)NC(=O)[C@H]2C[C@H](O)CN2C(=O)[C@H](Cc2c[nH]c3ccccc23)NC(=O)[C@@H]2CC[C@@H](O)CN2C(=O)[C@H](Cc2ccncc2)NC1=O [SEQ ID NO. 185] ({CH2CO}-[Nle][4Pal][Pip(5R-OH)]W[dHyp]N[Phe(4-COOH)][Trp(7-Cl)][αMeS][Phe(4-CONH2)]Y[Sar][Trp(βS-Me,7-OMe)]C-NH2; thioether N-14) | 0.2 | 0.16 | 0.9
CCCC[C@@H]1NC(=O)CSC[C@@H](C(N)=O)NC(=O)[C@H]([C@@H](C)c2c[nH]c3c(OC)cccc23)NC(=O)CN(C)C(=O)[C@H](Cc2ccc(O)cc2)NC(=O)[C@H](Cc2ccc(C(N)=O)cc2)NC(=O)[C@](C)(CO)NC(=O)[C@H](Cc2c[nH]c3c(Cl)cccc23)NC(=O)[C@H](Cc2ccncc2)NC(=O)[C@H](CC(N)=O)NC(=O)[C@@H](C)N(CC)C(=O)[C@H](Cc2c[nH]c3ccccc23)NC(=O)[C@@H]2CC[C@@H](O)CN2C(=O)[C@H](Cc2ccncc2)NC1=O [SEQ ID NO. 186] ({CH2CO}-[Nle][4Pal][Pip(5R-OH)]W[X40]N[4Pal][Trp(7-Cl)][αMeS][Phe(4-CONH2)]Y[Sar][Trp(βS-Me,7-OMe)]C-NH2; thioether N-14) | 0.5 | 0.42 | 1.9
COc1cccc2c([C@H](C)[C@@H]3NC(=O)CN(C)C(=O)[C@H](Cc4ccc(O)cc4)NC(=O)[C@H](Cc4ccc(C(=O)O)cc4)NC(=O)[C@](C)(CO)NC(=O)[C@H](Cc4c[nH]c5c(Cl)cccc45)NC(=O)[C@H](Cc4ccncc4)NC(=O)[C@H](CC(N)=O)NC(=O)[C@H](CCC(=O)O)N(C)C(=O)[C@H](Cc4c[nH]c5ccccc45)NC(=O)[C@@H]4CNCCN4C(=O)[C@H](Cc4ccncc4)NC(=O)[C@H](CC45CC(C4)C5)NC(=O)[C@@H]4CC[C@@H](C4)NC3=O)c[nH]c12 [SEQ ID NO. 190] (cyclo([4Pal][Trp(7-Cl)][αMeS][Phe(4-COOH)]Y[Sar][Trp(βS-Me,7-OMe)][X1][Ala(1-bicyclo(1.1.1)pentyl)][4Pal][Pip(4-aza)]W[NMeE]N)) | – | 0.33 | 1.6
CCCC[C@@H]1NC(=O)[C@@H]2CC[C@@H](C2)NC(=O)[C@H]([C@@H](C)c2c[nH]c3c(OC)cccc23)NC(=O)CN(C)C(=O)[C@H](Cc2cnc(C(=O)O)nc2)NC(=O)[C@H](Cc2ccc(C(N)=O)cc2)NC(=O)[C@](C)(CO)NC(=O)[C@H](Cc2c[nH]c3c(Cl)cccc23)NC(=O)[C@H](Cc2ccc(C(=O)O)cc2)NC(=O)[C@H](CC(N)=O)NC(=O)[C@H]2C[C@H](O)CN2C(=O)[C@H](Cc2c[nH]c3ccccc23)NC(=O)[C@@H]2CC[C@@H](O)CN2C(=O)[C@H](Cc2ccncc2)NC1=O [SEQ ID NO. 191] (cyclo([4Pal][Pip(5R-OH)]W[dHyp]N[Phe(4-COOH)][Trp(7-Cl)][αMeS][Phe(4-CONH2)][Ala(2-carboxypyrimidin-5-yl)][Sar][Trp(βS-Me,7-OMe)][X1][Nle])) | – | 0.18 | 1.6
CCCC[C@@H]1NC(=O)[C@@H]2CC[C@@H](C2)NC(=O)[C@H]([C@@H](C)c2c[nH]c3c(OC)cccc23)NC(=O)CN(C)C(=O)[C@H](Cc2cc(F)c(C(=O)O)c(F)c2)NC(=O)[C@H](Cc2ccc(C(N)=O)cc2)NC(=O)[C@](C)(CO)NC(=O)[C@H](Cc2c[nH]c3c(C#N)cccc23)NC(=O)[C@H](Cc2cc(F)c(C(=O)O)c(F)c2)NC(=O)[C@H](CC(N)=O)NC(=O)[C@H]2C[C@H](NC(=O)C[N+](C)(C)C)CN2C(=O)[C@H](Cc2c[nH]c3ncccc23)NC(=O)[C@@H]2CC[C@@H](O)CN2C(=O)[C@H](Cc2ccncc2)NC1=O [SEQ ID NO. 193] (cyclo([4Pal][Pip(5R-OH)][Trp(7-aza)][X49]N[X54][Trp(7-CN)][αMeS][Phe(4-CONH2)][X54][Sar][Trp(βS-Me,7-OMe)][X1][Nle])) | – | 0.15 | 1
CCCC[C@@H]1NC(=O)[C@@H]2CC[C@@H](C2)NC(=O)[C@H]([C@@H](C)c2c[nH]c3c(OC)cccc23)NC(=O)CN(C)C(=O)[C@H](Cc2ccc(OCCN(C)C)cc2)NC(=O)[C@H](Cc2ccc(C(=O)O)cc2)NC(=O)[C@](C)(CO)NC(=O)[C@H](Cc2c[nH]c3c(Cl)cccc23)NC(=O)[C@H](Cc2ccncc2)NC(=O)[C@H](CC(N)=O)NC(=O)[C@H](CCC(=O)O)N(C)C(=O)[C@H](Cc2c[nH]c3ccccc23)NC(=O)[C@@H]2CNCCN2C(=O)[C@H](Cc2ccncc2)NC1=O [SEQ ID NO. 195] (cyclo([4Pal][Trp(7-Cl)][αMeS][Phe(4-COOH)]Y(Me2NCH2CH2)[Sar][Trp(βS-Me,7-OMe)][X1][Nle][4Pal][Pip(4-aza)]W[NMeE]N)) | – | 0.28 | 1.6
